Among the data in PubChem BioAssay (NCI) are TGI and GI50 values, retold here.

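Assay format: 96-well plates, 48-hour exposure. At the GI50, growth is halved. The concentration for full growth arrest is given as TGI.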

Holding throughout (assay): NCI tumour cell line growth inhibition, 48 h
In test [1] the test system is OVCAR-8 ovarian.
In test [2] the test system is UACC-257 melanoma.
The subject of test [3] is HOP-62 NSCLC.
For test [4], the system named is DU-145 prostate.
The subject of test [5] is ACHN renal.
Test [6] has as its system COLO 205 colon.
In test [7] the test system is UACC-62 melanoma.
The subject of test [8] is IGROV1 ovarian.
For test [9], the system named is MALME-3M melanoma.
Test [10] concerns OVCAR-4 ovarian.

For `O=C(NP(=O)(N1CC1)N1CC1)c1cc(I)ccc1I`, the TGI in test [1] is over 94.4 µM; in test [2] it was over 100 µM; in test [3] it was over 71.5 µM; in test [4], over 100 µM; in [5], over 65.1 µM; in test [6] it was over 100 µM. Besides, the TGI in test [7] was 57.6 µM; in [8], over 100 µM; in test [9], over 92 µM; in test [10] it was over 100 µM.
Turning to `Nc1nc(-c2ccccc2)nc(N)c1N=O`, the GI50 in [1] was 7.55 µM; in test [2], 8.75 µM; in test [3], 12.8 µM; in test [4] it was 9.5 µM; in test [5] it was 4000 nM; in test [6], 2590 nM. The GI50 is 3600 nM in [7], 11800 nM in test [8], 6710 nM in test [9] and 7390 nM in [10]. Also, the TGI in [1] amounted to 53.7 µM; in test [2] it was 44.3 µM; in test [3] it was 30.5 µM; in [4], 21.6 µM; in [5], 14.1 µM; in test [6], 8.45 µM. Moreover, the TGI stood at 14 µM in test [7], 54 µM in test [8], 22.9 µM in test [9] and 79.4 µM in [10].
Take `COc1cc(O)c(C(=O)/C=C/c2ccc(O)cc2)c(O)c1[C@@H]1C[C@H](CCc2ccc(O)cc2)O[C@H](c2ccc(O)cc2)C1`: the GI50 in test [1] is 3.77 µM; in test [2], 5.47 µM; in test [3], 3.17 µM; in test [4] it was 3.22 µM; in test [5] it was 3310 nM; in test [6], 2720 nM. In addition, the GI50 is 3380 nM in [7], 2880 nM in test [8], 5460 nM in test [9] and 3350 nM in test [10]. Also, the TGI in [1] is 29.1 µM; in test [2], 20.2 µM; in [3], 11.2 µM; in [4], 10.9 µM; in [5], 10.9 µM; in [6] it was 8.44 µM. Further, the TGI came out at 12.9 µM in test [7], 16.5 µM in test [8], 28.7 µM in [9] and 16.8 µM in test [10].
For the compound `CCOC(=O)C(=Cc1ccc(Oc2ccccc2)cc1)C(=O)OCC`, the TGI stood at 10.7 µM in test [1]; 6.63 µM in test [2]; 11.2 µM in test [3]; 27.5 µM in [4]; 18.3 µM in test [5]; 11.4 µM in test [6]. Besides, the TGI came to 3.26 µM in test [7], 20.8 µM in test [8], 7.4 µM in [9] and 22.9 µM in [10].
On to `CC(=Nc1ccccc1)C1=C(O)C(Cc2ccccc2)NC1=O` (centres undefined), for which the GI50 was 0.0945 µM in test [1]; over 100 µM in test [2]; 0.0435 µM in test [3]; 0.133 µM in [4]; 62.5 nM in [5]; 27.9 nM in [6]. Moreover, the GI50 in [7] is 40.4 nM; in test [8], 65.1 nM; in [9], 18 nM; in test [10] it was 115 nM. Further, the TGI in test [1] is over 100 µM; in test [2] it was over 100 µM; in [4], 1.29 µM; in test [5] it was over 100 µM; in test [6] it was 0.0824 µM; in test [7] it was over 100 µM. Moreover, the TGI in test [8], in [9] and in [10] was over 100 µM throughout.
Take `CC[C@@H](C(=O)[C@@H](C)[C@@H](O)[C@H](C)[C@@H]1O[C@@H]([C@@H](CC)C(=O)N(CC)CC)CC[C@@H]1C)C1O[C@]2(C=CC(=O)[C@]3(CC[C@@](C)([C@H]4CC[C@](O)(CC)[C@H](C)O4)O3)O2)[C@H](C)C[C@@H]1C` (some centres undefined): the GI50 in test [1] is 3.55 µM; in test [2] it was 3.17 µM; in test [3], 3.75 µM; in test [4], 3.41 µM; in [5] it was 2160 nM; in test [6], 2350 nM. The GI50 in [7] is 1830 nM; in [8], 2310 nM; in test [9], 1930 nM; in test [10] it was 2960 nM. For the same compound, the TGI was over 100 µM in [1]; 19.9 µM in [2]; 20.1 µM in test [3]; 12.6 µM in test [4]; 5.19 µM in test [5]; 5.4 µM in [6]. In addition, the TGI was 5.81 µM in [7], 7.71 µM in [8], 4.9 µM in test [9] and 15.3 µM in test [10].
In the case of `N#CSCC1CC(O)(c2ccccc2)CC(c2ccc(F)cc2)O1` (centres undefined), the GI50 in test [1] was 2.02 µM; in test [2] it was 3.29 µM; in test [3], 1.99 µM; in test [4], 1.56 µM; in test [5] it was 2100 nM; in test [6], 2020 nM. Further, the GI50 is 2140 nM in test [7], 3190 nM in test [8], 2140 nM in [9] and 2420 nM in test [10]. Further, the TGI was determined as 4.37 µM in test [1]; 11.9 µM in test [2]; 3.61 µM in test [3]; 3.45 µM in test [4]; 6.43 µM in [5]; 4.25 µM in test [6]. The TGI in test [7] stood at 6.12 µM; in [8], 12 µM; in [9], 6.44 µM; in test [10], 8.08 µM.
On to `NC(=O)c1cc(-c2ccc(F)cc2)cc(-c2ccncc2)c1N`, for which the GI50 is over 25 µM in test [1]; over 25 µM in [2]; over 25 µM in test [3]; over 25 µM in [4]; over 25000 nM in test [5]; over 25000 nM in test [6]. In addition, the GI50 in test [7], in test [8], in test [9] and in test [10] was over 25000 nM throughout. The TGI in test [1], in [2], in [3], in test [4], in test [5] and in [6] was over 25 µM in each case. Moreover, the TGI in test [7], in [8], in test [9] and in [10] was over 25 µM each time.
